Laboratory results as given in BindingDB's records for doi:10.3109/14756360903508430 (University of Karachi, 2010).

Legend:
Cathepsin D = Cathepsin D (Homo sapiens, UniProt P07339); assay: Fluorescence Resonance Energy Transfer (FRET)-Based Assay; conditions: pH 5
Description: (§1) The assay was performed with plasmepsin-II/cathepsin D (1.2 nM) and substrate (malaria FRET-1; 1.0 μM) in 0.1 M sodium acetate buffer pH 5, containing 10% glycerol and 0.01% Tween 20. The hydrazide and hydrazine compounds dissolved in DMSO were added in the reaction mixture before the addition of substrate. The assays were performed with 5% final concentration of DMSO. The enzyme inhibition experiments were performed (in triplicates) in 96-well plate format and readings were obtained on a Perkin Elmer LS55 fluorescence spectrometer, Waltham, Massachusetts, with an excitation and emission wavelengths of 336 and 490 nm respectively.

Plasmepsin II = Plasmepsin II (Plasmodium falciparum (isolate HB3), UniProt P46925); assay: as above; conditions: pH 5
Description: as §1

Chain of Plasmepsin II (P46925 whole entry): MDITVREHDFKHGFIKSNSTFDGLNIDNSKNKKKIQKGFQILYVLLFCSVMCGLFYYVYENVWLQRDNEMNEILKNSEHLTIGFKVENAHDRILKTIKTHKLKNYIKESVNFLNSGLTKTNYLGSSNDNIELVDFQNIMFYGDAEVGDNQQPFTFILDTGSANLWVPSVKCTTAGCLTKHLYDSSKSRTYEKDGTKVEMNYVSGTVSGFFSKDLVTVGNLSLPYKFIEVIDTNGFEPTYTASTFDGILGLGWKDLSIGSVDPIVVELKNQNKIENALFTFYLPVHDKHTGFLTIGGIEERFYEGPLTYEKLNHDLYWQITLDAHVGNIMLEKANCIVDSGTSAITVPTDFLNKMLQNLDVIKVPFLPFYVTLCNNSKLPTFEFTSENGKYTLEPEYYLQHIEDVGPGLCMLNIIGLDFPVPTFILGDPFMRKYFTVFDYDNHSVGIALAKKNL
Chain of Cathepsin D (P07339 65-162 limits assumed): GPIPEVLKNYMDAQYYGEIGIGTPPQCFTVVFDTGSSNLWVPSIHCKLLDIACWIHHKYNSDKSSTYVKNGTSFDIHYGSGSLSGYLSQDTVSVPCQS
Chain of Cathepsin D (P07339 169-412 limits assumed): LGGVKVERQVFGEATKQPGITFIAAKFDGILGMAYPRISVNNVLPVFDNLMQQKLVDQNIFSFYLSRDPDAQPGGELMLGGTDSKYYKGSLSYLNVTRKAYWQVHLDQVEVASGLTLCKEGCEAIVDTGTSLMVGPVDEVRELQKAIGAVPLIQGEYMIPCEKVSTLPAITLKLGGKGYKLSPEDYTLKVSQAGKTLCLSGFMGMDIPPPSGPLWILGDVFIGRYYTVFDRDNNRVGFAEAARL

`CCCC(=O)NN` [Butanohydrazide] gave an IC50 (Cathepsin D) of 1400 nM and an IC50 (Plasmepsin II) of 1250 nM.
`c1cc(NNc2ccncc2)ccn1` [1,2-Dipyridinylhydrazine] showed an IC50 (Cathepsin D) of 2500 nM and an IC50 (Plasmepsin II) of 1450 nM.
In the case of `COc1ccccc1C(=O)NN`, the IC50 (Cathepsin D) is reported as 1500 nM and the IC50 (Plasmepsin II) is reported as 1650 nM.
With `NNC(=O)c1ccccc1[N+](=O)[O-]` [2-Nitrobenzohydrazide] the IC50 (Cathepsin D) was 1300 nM and the IC50 (Plasmepsin II) was 1000 nM.
In the case of `c1ccc(NNc2ccccc2)cc1` [1,2-Diphenylhydrazine], the IC50 (Cathepsin D) is reported as 2400 nM and the IC50 (Plasmepsin II) is reported as 1050 nM.
